Laboratory results taken from PMC12250347, “Calcium-dependent pathway as a primary cause of hypoxic RGC damage in monkey retinal explants” (PLOS One, 2025).
“Also recorded” adds a separate entry of the source.

Columns and labels:
[1] = target: T1, human erythrocyte calpain 1 (Homo sapiens, UniProt P07384); experiment: Calpain-Glo Protease Assay; type: biochemical; settings: 5 mM CaCl2, 10 min, room temperature; mean of two experiments
T1 construct: human erythrocyte calpain 1 (MilliporeSigma); purchased MilliporeSigma; host or cells: human erythrocytes
T1 sequence (P07384 1-714): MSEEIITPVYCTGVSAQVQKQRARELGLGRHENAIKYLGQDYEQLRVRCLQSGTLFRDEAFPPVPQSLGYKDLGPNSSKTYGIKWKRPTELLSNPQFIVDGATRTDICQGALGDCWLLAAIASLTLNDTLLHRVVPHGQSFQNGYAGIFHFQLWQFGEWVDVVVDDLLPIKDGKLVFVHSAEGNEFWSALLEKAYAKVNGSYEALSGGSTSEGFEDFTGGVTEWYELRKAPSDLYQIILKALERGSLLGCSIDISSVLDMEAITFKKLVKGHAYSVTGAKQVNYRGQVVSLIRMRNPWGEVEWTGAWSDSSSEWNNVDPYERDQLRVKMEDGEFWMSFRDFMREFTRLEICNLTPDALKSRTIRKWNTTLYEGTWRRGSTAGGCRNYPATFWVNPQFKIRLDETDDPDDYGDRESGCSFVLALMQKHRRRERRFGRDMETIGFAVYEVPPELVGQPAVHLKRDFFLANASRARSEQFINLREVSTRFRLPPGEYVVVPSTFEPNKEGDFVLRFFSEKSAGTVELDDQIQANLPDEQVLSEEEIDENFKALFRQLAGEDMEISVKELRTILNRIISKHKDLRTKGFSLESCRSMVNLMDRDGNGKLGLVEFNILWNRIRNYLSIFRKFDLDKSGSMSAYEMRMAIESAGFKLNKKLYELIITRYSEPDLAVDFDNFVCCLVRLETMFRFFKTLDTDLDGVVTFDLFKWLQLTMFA
T1 sequence (P04632 1-268 partner): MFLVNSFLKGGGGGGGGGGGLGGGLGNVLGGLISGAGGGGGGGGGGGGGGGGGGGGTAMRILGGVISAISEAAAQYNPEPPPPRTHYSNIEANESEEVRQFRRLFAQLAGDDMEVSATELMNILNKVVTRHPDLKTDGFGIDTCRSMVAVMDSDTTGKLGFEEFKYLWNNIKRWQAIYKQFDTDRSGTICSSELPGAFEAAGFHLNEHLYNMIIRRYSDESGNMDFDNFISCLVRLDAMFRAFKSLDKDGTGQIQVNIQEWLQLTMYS
Procedure: For measurement of inhibitory activities against calpains in vitro, Calpain-Glo Protease Assay (Promega; Madison, WI, USA) was performed using human erythrocyte calpain 1 (MilliporeSigma) and purified porcine calpain 2. Briefly, 24 µL of each calpain diluted with 20 mM Tris-HCl (pH 7.4), 1 µL of each inhibitor, and 25 µL of reaction buffer including CaCl2 in a 96-well plate was incubated for 10 min at room temperature. The final concentration of CaCl2 in the reaction solution was 5 mM. The luminescence was measured using a microplate reader (GloMax Discover System; Promega). IC50 values from two independent experiments were averaged.

[2] = test system: calpain 1 activation and proteolysis of α-spectrin; experiment: Immunoblotting of retinal explants under hypoxia/reoxygenation; type: cell-based, rhesus macaques (Macaca mulatta); settings: H16R8
Procedure: Retina explant culture was performed as described in our previous report, except for the induction of hypoxia. Briefly, a hypoxic chamber (Coy Laboratory Products, Grass Lake, MI, USA) was controlled at 0.3% oxygen with a 95% N2/5% CO2 gas mixture. Retinas were dissected into fan-shaped explants with 6 or 7 petals (> 5 mm) in HBSS. Each explant was placed with the RGC side facing up on a Millicell organotypic standing insert (0.4 μm, 30 mm diameter, MilliporeSigma) in six-well, culture plates. They were cultured for 2 hr at 37°C under 95% N2/5% CO2 in Neurobasal-A medium supplemented with B27, N2 supplements, 2 mM L-glutamine (Thermo Fisher Scientific, Waltham, MA, USA), and 100 μg/mL primocin (Invivogen, San Diego, CA, USA). Retinal explants were then chamber-cultured under hypoxic conditions for 16 hr in a culture medium with 0.5 mM glucose, under 0.3% oxygen. The retinas were then re-oxygenated for 8 hr in a culture medium with 5.5 mM glucose. Normoxic control retinas were cultured for 24 hr in a culture medium with 5.5 mM glucose. When present, calpain inhibitors (SNJ-1945, PD-151746, C2I, and ABT-957) and cathepsin inhibitors (Odanacatib and SID26681509) in 0.1% DMSO were used at the final concentration of 10 or 100 μM in the medium. BAPTA (Thermo Fisher Scientific) and BAPTA-AM (Thermo Fisher Scientific) were also used at a final concentration of 3 or 10 mM or a final concentration of 100 or 500 μM, respectively.
All inhibitors and BAPTA were treated simultaneously with hypoxia induction, and BAPTA-AM treatment was 2 hr before hypoxia induction.
Each retinal explant was sonicated in RIPA Lysis and Extraction Buffer (Thermo Fisher Scientific), with protease inhibitors cocktail (Complete Mini-EDTA-free; MilliporeSigma). Protein concentrations in lysates were measured by BCA assay (Pierce BCA Protein Assay Kit, Thermo Fisher Scientific) using bovine serum albumin as a standard. For immunoblotting, 5 μg of each sample was loaded and run on 4% to 12% gradient or 10% SDS-PAGE gels (NuPAGE Bis-Tris Protein Gels, Thermo Fisher Scientific) with 2-(N-morpholino)ethanesulfonic acid buffer or 3-(N-morpholino) propanesulfonic acid buffer (Thermo Fisher Scientific). Proteins were then electrotransferred to a polyvinylidene fluoride membrane (MilliporeSigma) at 100 V for 60 min or 1.5 hr. Membranes were then blocked with 5% skim milk in Tris-buffer saline (Bio-Rad Laboratories, Hercules, CA, USA) containing 0.05% Tween 20. Each membrane was probed with primary antibodies against α-spectrin (1:2000 dilution, Enzo Life Sciences, Farmingdale, NY, USA), SBDP150 (1:1000 dilution, Senju Pharmaceutical), calpain 1 (1:1000 dilution, Thermo Fisher Scientific), calpain 2 (1:500, GeneTex, Irvine, CA, USA), cathepsin K (1:500 dilution, Abcam), and β-actin (1:1000 dilution, Merck). For calpain 1, immunoreactivity was visualized using a secondary antibody conjugated to alkaline phosphatase and the AP Conjugate Substrate Kit (Bio-Rad Laboratories). For other proteins, immunoreactivities were visualized using secondary antibodies conjugated with rabbit (Santa Cruz Biotechnology) or mouse horseradish peroxidase enzyme (Cytiva, Wilmington, DE, USA) and ECL Plus detection reagents (Cytiva). Images of the membranes were captured with FluorChem FC2 imager (Cell Biosciences, Santa Clara, CA, USA). The conversion of pro-cathepsin K (38 kDa) to its mature form (27 kDa) was used as an indicator of cathepsin K activation.

[3] = cathepsin inhibitor at 10 or 100 µM

SMILES | IC50 [1] | Effect on activation of calpain 1 and proteolysis of α-spectrin (immunoblot) [2, 3] | Effect on activation of calpain 1 and proteolysis of α-spectrin (immunoblot) ([2]; calpain inhibitors (SNJ-1945 100 µM))
CC(C)(F)C[C@H](N[C@@H](c1ccc(-c2ccc(S(C)(=O)=O)cc2)cc1)C(F)(F)F)C(=O)NC1(C#N)CC1 [Odanacatib] | 15.9 µM | did not mitigate | –
CCc1ccccc1NC(=O)CSC(=O)NNC(=O)[C@H](Cc1c[nH]c2ccccc12)NC(=O)OC(C)(C)C [SID26681509] | 81 µM | did not mitigate | –
COCCOCCOC(=O)N[C@@H](CC(C)C)C(=O)N[C@@H](Cc1ccccc1)C(=O)C(=O)NC1CC1 [SNJ-1945] | 0.077 µM | – | effectively ameliorated; also recorded: inhibited the autolytic activation of calpain 1; also recorded: nearly completely inhibited calpain-induced proteolysis
